Assay in all cases: NCI-60 cell line screen, 48 h
Experiment [1] deals with HT29 colon.
The subject of experiment [2] is EKVX NSCLC.
In experiment [3] the test system is SR leukemia.
Experiment [4] deals with A498 renal.
Experiment [5] has as its system U251 CNS.
Experiment [6] relates to SK-OV-3 ovarian.
Experiment [7] deals with OVCAR-5 ovarian.
Experiment [8] has as its system OVCAR-8 ovarian.

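Exposure lasted 48 hours, with cells grown in 96-well plates and compounds tested at five concentrations. GI50 = concentration required for 50% inhibition of growth. TGI denotes the concentration required for complete inhibition of growth.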

In the case of `Cc1nnc(N/N=C/c2ccc([N+](=O)[O-])o2)[nH]c1=O`, the GI50 in experiment [1] is 3.63 µM; in experiment [2] it was 1.05 µM; in experiment [3], 1.1 µM; in experiment [4], 0.756 µM; in experiment [5] it was 0.289 µM; in experiment [6] it was 3.77 µM. Besides, the values for the GI50 in experiment [7] and in experiment [8] were 2.98 µM and 0.785 µM, respectively. Besides, the TGI in experiment [1] was > 100 µM; in experiment [2] it was > 100 µM; in experiment [3], > 100 µM; in experiment [4] it was 14.3 µM; in experiment [5] it was > 100 µM; in experiment [6] it was > 93.5 µM. Also, the TGI in experiment [7] and in experiment [8] was > 100 µM throughout.

Take `CCN(CC)CCOc1nc2ccccc2c2c1-c1ccc(OC)cc1C2=O`: the GI50 in experiment [1] was 0.334 µM; in experiment [2] it was 1.59 µM; in experiment [3], 0.316 µM; in experiment [4], 0.728 µM; in experiment [5], 0.446 µM; in experiment [6], 2.48 µM. Further, the GI50 in experiment [7] is 1.61 µM; in experiment [8] it was 0.527 µM. Besides, the TGI is 1.54 µM in experiment [1]; 4.79 µM in experiment [2]; 1.07 µM in experiment [3]; 2.18 µM in experiment [4]; 2.3 µM in experiment [5]; > 36.6 µM in experiment [6]. Also, the values for the TGI in experiment [7] and in experiment [8] were 7.51 µM and 5.7 µM, respectively.

As to `Cn1nc(C(F)(F)F)cc1-c1cc(Cl)c(OCc2ccc(Cl)cc2)c(-c2ccc(Cl)c(C(F)(F)F)c2)c1O`, the GI50 in experiment [1] is 1.4 µM; in experiment [2], 1.21 µM; in experiment [3], 0.651 µM; in experiment [4], 0.251 µM; in experiment [5] it was 1.05 µM; in experiment [6], 1.43 µM. Also, the GI50 was 1.72 µM in experiment [7] and 1.2 µM in experiment [8]. The TGI was 5.92 µM in experiment [1]; 5.41 µM in experiment [2]; 2.11 µM in experiment [3]; 1.09 µM in experiment [4]; 5.13 µM in experiment [5]; 4.31 µM in experiment [6]. The figures for the TGI in experiment [7] and in experiment [8] were 7.4 µM and 5.41 µM, respectively.

`CN(C(=O)C(C)(C)C)c1ccccc1I(=O)=O`: the GI50 is > 100 µM in experiment [1]; > 100 µM in experiment [2]; 3.15 µM in experiment [3]; > 100 µM in experiment [4]; 89.1 µM in experiment [5]; > 100 µM in experiment [6]. Moreover, the GI50 in experiment [7] and in experiment [8] was > 100 µM each time. The TGI in experiment [1] was > 100 µM; in experiment [2], > 100 µM; in experiment [3], 26.4 µM; in experiment [4], > 100 µM; in experiment [5], > 100 µM; in experiment [6], > 100 µM. Moreover, the TGI in experiment [7] and in experiment [8] was > 100 µM in each case.

With `Cc1cc2nc3c(C#N)c(C)c(CCCl)c(Cl)n3c2cc1C`, the TGI in experiment [1] was 5.91 µM; in experiment [2] it was 35.6 µM; in experiment [3] it was 5.81 µM; in experiment [4], 7.64 µM; in experiment [5] it was > 60.9 µM; in experiment [6] it was > 56.6 µM. Further, the TGI in experiment [7] was 5.86 µM; in experiment [8] it was 7.55 µM.

On to `Nc1nc2cc(Cl)ccc2n1N`, for which the TGI in experiment [1], in experiment [2], in experiment [3], in experiment [4], in experiment [5] and in experiment [6] was > 100 µM in each case. The TGI in experiment [7] and in experiment [8] was > 100 µM throughout.

For the molecule `CCC(=O)NC1=C(Cl)C(=O)C(NC(=O)CC)=C(Cl)C1=O`, the GI50 is 25.2 µM in experiment [1]; 18.1 µM in experiment [2]; 8.13 µM in experiment [3]; 38.2 µM in experiment [4]; > 41.9 µM in experiment [5]; > 73.1 µM in experiment [6]. The GI50 was 20.6 µM in experiment [7] and 37.4 µM in experiment [8]. The TGI was 53.3 µM in experiment [1]; 33.1 µM in experiment [2]; > 23.2 µM in experiment [3]; > 72.6 µM in experiment [4]; > 56 µM in experiment [5]; > 100 µM in experiment [6]. In addition, the TGI was 40.5 µM in experiment [7] and > 60.6 µM in experiment [8].

On to `Cc1ccc(NC(=O)COc2ccc(Cl)cc2)cc1Cl`, for which the TGI in experiment [1] was > 100 µM; in experiment [2] it was > 100 µM; in experiment [3] it was 69.7 µM; in experiment [4], > 100 µM; in experiment [5], > 100 µM; in experiment [6], > 100 µM. The TGI in experiment [7] and in experiment [8] was > 100 µM throughout.

Take `O=C(Nc1cccc([N+](=O)[O-])c1)c1cccc(C(=O)Nc2cccc([N+](=O)[O-])c2)c1`: the GI50 in experiment [1] was > 100 µM; in experiment [2], > 59.9 µM; in experiment [3] it was > 100 µM; in experiment [4] it was 20.2 µM; in experiment [5], 7.15 µM; in experiment [6], 13 µM. The GI50 was > 100 µM in experiment [7] and 14 µM in experiment [8]. In addition, the TGI in experiment [1] was > 100 µM; in experiment [2], > 100 µM; in experiment [3], > 100 µM; in experiment [4], 79.5 µM; in experiment [5] it was > 68.2 µM; in experiment [6], > 82.8 µM. The TGI in experiment [7] and in experiment [8] was > 100 µM throughout.

As for `CCN1CCN(c2ccc(NC(=O)Nc3nc4ccc(-c5ccccc5OC)cc4s3)cc2)CC1`, the GI50 was 1.31 µM in experiment [1]; 1.51 µM in experiment [2]; 1.65 µM in experiment [3]; 1.8 µM in experiment [4]; 1.57 µM in experiment [5]; 1.79 µM in experiment [6]. Moreover, the GI50 is 1.8 µM in experiment [7] and 1.99 µM in experiment [8]. Besides, the TGI in experiment [1] was found to be 2.7 µM; in experiment [2], 3.12 µM; in experiment [3], 4.31 µM; in experiment [4], 3.61 µM; in experiment [5] it was 2.94 µM; in experiment [6], 3.55 µM. For the same molecule, the TGI in experiment [7] was found to be 3.37 µM; in experiment [8], 3.66 µM.

Values taken from PubChem BioAssay (NCI).
